Results as given in patent US8785446B2, “Treating post-seizure patients” (priority 2009, dated 2014).
Entries after “also recorded” stand apart in the source; their conditions may differ.

Columns and labels:
PKA = PKA activity (ELISA) after hypoxic seizures and in vivo AMPAR antagonist treatment; parameters: species or system rat; conditions: 1 hour following hypoxic seizures; vs vehicle
Description: (§1) Protein kinase A (PKA) […] mediates the phosphorylation of GluR1 S845 and protein kinase C (PKC) is involved in the phosphorylation of both GluR1 S831 (Kameyama et al., 1998; Mammen et al., 1997) and GluR2 S880 (Seidenman et al., 2003). […] Similarly, CaMKII activity increased at 1 hour post-seizures before returning to baseline levels at 6 hours post-hypoxia. […] The rapid seizure-induced activation of these protein kinases are occurring coincident with the alterations in phosphorylation state of their known substrates, GluR1 S831, GluR1 S845, and GluR2 S880.
(§2) To determine whether seizure-induced activation of AMPAR plays a critical role in the alterations in EPSCs and subunits reported here, we examined whether pharmacologic inhibition of AMPARs in vivo following hypoxic seizures leads to a decrease in the activity of Ca^2+ dependent protein kinases and GluR1 subunit phosphorylation state. […] Within 30 minutes after hypoxic seizures, rats were treated with a single dose of systemically administered AMPAR antagonists NBQX (20 mg/kg), topiramate (30 mg/kg) or GYKI-53773 (7.5 mg/kg), and compared to vehicle-treated (0.1 ml PBS) hypoxic controls and normoxic littermates. These treatment doses are the same as the treatment paradigm in which we previously observed an attenuation of long-term epileptogenic changes (Koh et al., 2004). […] Importantly, blockade of AMPAR-mediated neurotransmission is the common mechanistic feature of these three structurally unrelated compounds and may represent the potential mode of mediating alterations.

PKC = PKC activity (ELISA) after hypoxic seizures and in vivo AMPAR antagonist treatment; parameters: species or system rat; conditions: 6 hours post-hypoxic seizures; vs vehicle
Description: as §1, §2

[1] = system: GluR1 S831 and GluR1 S845; assay: AMPAR GluR1 subunit phosphorylation in hippocampus after post-seizure AMPAR antagonist treatment in vivo; parameters: species or system rat; conditions: for GluR1 S845 phosphorylation: 12 hours after hypoxia-induced seizures; for GluR1 S845 phosphorylation / GluR1 S831 phosphorylation: single systemic dose within 30 minutes after seizures, vs vehicle; for GluR1 S831 phosphorylation: 12 hours after hypoxic seizures; for GluR1 subunit phosphorylation: post-treatment during the early period after seizure induction
Excerpt: The strength of synaptic transmission in intact neuronal networks, such as in LTP, can be regulated by altered AMPAR function mediated by phosphorylation of GluR1 S831 and GluR1 S845 (Barria et al., 1997; Lee et al., 2000; Lee et al., 2003).
To determine whether seizure-induced activation of AMPAR plays a critical role in the alterations in EPSCs and subunits reported here, we examined whether pharmacologic inhibition of AMPARs in vivo following hypoxic seizures leads to a decrease in the activity of Ca^2+ dependent protein kinases and GluR1 subunit phosphorylation state. […] Within 30 minutes after hypoxic seizures, rats were treated with a single dose of systemically administered AMPAR antagonists NBQX (20 mg/kg), topiramate (30 mg/kg) or GYKI-53773 (7.5 mg/kg), and compared to vehicle-treated (0.1 ml PBS) hypoxic controls and normoxic littermates.

CaMKII = CaMKII activity (ELISA) after hypoxic seizures and in vivo AMPAR antagonist treatment; conditions: 1 hour following hypoxic seizures; in vivo administration vs vehicle
Description: as §1, §2

[2] = cited from earlier work
[3] = system: AMPAR-mediated sEPSCs in CA1 neurons; assay: AMPAR-mediated sEPSCs in ex vivo hippocampal slices after post-seizure treatment in vivo; parameters: species or system rat; conditions: for sEPSC amplitude / sEPSC frequency: hippocampal slices prepared 1 hour after administration post hypoxic seizure, vs vehicle; for acute and subacute enhancement in AMPAR EPSCs: post-treatment during the early period after seizure induction
Description: Neonatal seizures have been described to enhance the excitability of hippocampal networks as well as cause alterations in long-term network excitability (Jensen et al., 1991; Sanchez et al., 2001; Silverstein and Jensen, 2007; Cornejo et al., 2007), but their acute effects on AMPAR function have not been examined. We compared spontaneous (s) and miniature (m) AMPAR-mediated excitatory postsynaptic currents (EPSCs) in CA1 pyramidal neurons in P10 rat pup hippocampal slices removed 1 hour after hypoxia-induced seizures (hypoxic seizures) and normoxic control rat pups.
Following hypoxic seizures, NBQX, topiramate or GYKI-53773 were administered to the rat pups experiencing hypoxic seizures and hippocampal slices were prepared 1 hour after administration of AMPAR antagonists.

hypoxia-induced seizures = conditions: post-seizure treatment within the first 48 hours following hypoxic seizures; cited from earlier work
KA-induced seizures = assay: Susceptibility to KA-induced seizures 3 days after hypoxic seizures at P10; format: in vivo, rat
Description: We have previously reported that enhanced hippocampal excitability observed in rat pups following hypoxia-induced seizures is reflected in the increased susceptibility to KA-induced seizures in these animals at both short (72-96 h) and long (40+ days) intervals following the initial seizures at P10 (Koh et al., 2004).

GluR2-lacking AMPARs = assay: Evoked EPSC recording in CA1 pyramidal neurons of hippocampal slices removed 1 hour after hypoxic seizures; format: cell-based, rat; conditions: bath application 10 μM; slices 1 hour after in vivo seizures in P10 pup; compared to normoxic controls
Description: The age window around P10-12 is characterized by a relative preponderance of Ca^2+ permeable AMPARs in hippocampal and neocortical neurons resulting from a developmentally regulated decrease in GluR2 subunit expression (Sanchez et al., 2001; Durand and Zukin, 1993; Talos et al., 2006b; Kumar et al., 2002). Additionally, hypoxic seizures have been previously associated with a decrease in the expression of GluR2 mRNA and protein 48 hours following the induction of seizures (Sanchez et al., 2001). However the acute alterations in the phosphorylation and function of GluR-2 lacking AMPARs following hypoxic seizures have not been well-characterized. […] Expression of inwardly rectifying AMPAR-mediated currents can result from an increase in phosphorylation of GluR2 S880 and resultant trafficking of the GluR2 subunit out of the synaptic membrane (Chung et al., 2000; Kim et al., 2001; Seidenman et al., 2003). Indeed, GluR2 S880 phosphorylation was increased in the hippocampus of rats experiencing hypoxic seizures as compared to normoxic litter mates, maximal at 12 hours post hypoxia. This seizure-induced phosphorylation of GluR2 S880 may contribute to the subacute changes in GluR2 expression reported previously (Sanchez et al., 2001), as well as increased inward rectification of EPSPs reported above.

neonatal seizures = conditions: cited from earlier work

Compound	seizure-induced PKA activation (PKA)	seizure-induced increase in PKC activity (PKC)	GluR1 S845 phosphorylation [1]	GluR1 S831 phosphorylation [1]	GluR1 subunit phosphorylation [1]	activity of CaMKII (CaMKII)	cognitive impairment ([2]; preliminary human studies)	sEPSC amplitude [3]	sEPSC frequency [3]	acute and subacute enhancement in AMPAR EPSCs [3]	long-term increase in susceptibility to seizures (hypoxia-induced seizures)	seizure-induced neuronal injury (hypoxia-induced seizures)	latency to seizures (KA-induced seizures; P13, 20 mg/kg i.p., compared to vehicle treated hypoxic controls)	maximal seizure severity (KA-induced seizures; P13, 20 mg/kg i.p., compared to vehicle-treated pups with prior hypoxic seizures)	enhanced seizure susceptibility (KA-induced seizures; at P13 (72 hours post-hypoxic seizures), 20 mg/kg i.p. following hypoxic seizures, KA 2 mg/kg i.p.)	eEPSCs in CA1 pyramidal neurons post-hypoxia (GluR2-lacking AMPARs)	infants with neonatal seizures in whom efficacy for acute seizure suppression is lacking (neonatal seizures; first line therapy)	effect on long-term outcome (neonatal seizures; infants with neonatal seizures)	threshold for memory impairment ([2]; healthy volunteers and patients with epilepsy)
CC(=O)N1N=C(c2ccc(N)cc2)c2cc3c(cc2C[C@H]1C)OCO3 [GYKI-53773]	blocked	significantly reduced; also recorded: blocked	significantly reduced to baseline normoxia levels	significantly reduced to baseline normoxia levels	blocked	reduced to near baseline levels; also recorded: blocked	less cognitive impairment	significantly attenuated	attenuation	blocked									
NS(=O)(=O)c1cccc2c1c([N+](=O)[O-])cc1nc(O)c(O)nc12 [NBQX]	reduced significantly; also recorded: blocked	significantly reduced; also recorded: blocked	significantly reduced to baseline normoxia levels	significantly reduced to baseline normoxia levels	blocked	reduced to near baseline levels; also recorded: blocked		significantly attenuated	attenuation	blocked	prevents	prevents	significantly longer	significantly lower	significantly attenuated; also recorded: reversal				
CCCC(=O)N[C@@H](Cc1ccc(O)cc1)C(=O)NCCCCNCCCNCCCN [PhTX-433]																blocked the majority of eEPSCs			
O=C1NC(=O)C(c2ccccc2)(c2ccccc2)N1 [phenyloin]																	~50%	no effect	
CC1(C)O[C@@H]2[C@@H](CO[C@@]3(COS(N)(=O)=O)OC(C)(C)O[C@@H]23)O1 [topiramate]	reduced significantly; also recorded: blocked	blocked	significantly reduced to baseline normoxia levels	significantly reduced to baseline normoxia levels	blocked	reduced to near baseline levels; also recorded: blocked		significantly attenuated	attenuation	blocked	prevents	prevents							lower than lamotrigine and valproate
